According to EP2253620B1, “SUBSTITUTED 3-CYANOQUINOLINES AS PROTEIN TYROSINE KINASES INHIBITORS” (Wyeth Holdings LLC, priority 1998, dated 2000):
In brackets after ≈: the same amount, converted by molar mass.

Tests used:
3T3 = assay: Inhibition of Cancer Cell Growth as Measured by Cell Number; format: cell-based; details: 48 hours exposure, Sulforhodamine B; for IC50: Mus musculus, NIH3T3
Procedure: (§1) Inhibition of Cancer Cell Growth as Measured bv Cell Number
(§2) Human tumor cell lines were plated in 96-well plates (250 µl/well, 1-6 x 10^4 cells/ml) in RPMI 1640 medium, containing 5% FBS (Fetal Bovine Serum). […] After 48 hours exposure to test compounds, cells were fixed with trichloroacetic acid, and stained with Sulforhodamine B. After washing with trichloroacetic acid, bound dye was solubilized in 10 mM Tris base and optical density was determined using plate reader. Under conditions of the assay the optical density is proportional to the number of cells in the well. […] The test procedure is described in details by Philip Skehan et. al, J.Natl. Canc. Inst., 82, 1107-1112 (1990). […] Information about some of the cell lines used in these test procedures is available from the American Type Tissue Collection: Cell Lines and Hybridomas, 1994 Reference Guide, 8th Edition.

Her2/3T3 = assay: as above; format: cell-based; details: 48 hours exposure, Sulforhodamine B
Procedure: as §1, §2

[1] = tested on: Human Epidermoid Tumors (A431); assay: In Vivo Inhibition of the Growth of Human Epidermoid Tumors (A431) in mice; details: for Relative Tumor Growth Day 7 / % T/C Day 7 / Relative Tumor Growth Day 14 / % T/C Day 14 / Relative Tumor Growth Day 21 / % T/C Day 21 / Relative Tumor Growth Day 28 / % T/C Day 28 / S/T (# of Survivors/# of Treated) / Relative Tumor Growth Day 20 / % T/C Day 20: days 1 through 10; for % T/C Day 7 / % T/C Day 14 / % T/C Day 21 / % T/C Day 28 / % T/C Day 20: * = p < 0.01; for S/T (# of Survivors/# of Treated): Day +28 post tumor staging
Procedure: In Vivo Inhibition of the Growth of Human Epidermoid Tumors (A431)
BALB/c nu/nu female mice (Charles River, Wilmington, MA) were used in the in vivo standard pharmacological test procedures. Human epidermoid carcinoma cells A-431 (American Type Culture Collection, Rockville, Maryland # CRL-155) were grown in vitro as described above. A unit of 5 X 10^6 cells were injected SC into mice. […] Control animals received no drug. […] […] The %T/C (Tumor/Control) is determined by dividing the relative tumor growth of the treated group by the relative tumor growth of the placebo group and multiplying by 100.

MDAMB435 = assay: Inhibition of Cancer Cell Growth as Measured by Cell Number; format: cell-based, Human; details: 48 hours exposure, Sulforhodamine B; for IC50: Homo sapiens, MDA-MB-435
Procedure: as §1, §2

SW620 = assay: as above; format: cell-based, Human; details: 48 hours exposure, Sulforhodamine B; for IC50: Homo sapiens, SW-620
Procedure: as §1, §2

A431 = assay: as above; format: cell-based, Human; details: 48 hours exposure, Sulforhodamine B; for IC50: Homo sapiens, A-431
Procedure: as §1, §2

SKBR3 = assay: as above; format: cell-based, Human; details: 48 hours exposure, Sulforhodamine B; for IC50: Homo sapiens, SK-BR-3
Procedure: as §1, §2

[2] = biological target: T1, epidermal growth factor receptor kinase (Homo sapiens, UniProt P00533); assay: Inhibition of Epidermal Growth Factor Receptor Kinase (EGF-R) using recombinant enzyme; format: biochemical; details: averages of the individual determinations
T1 construct: containing the EGFR cDNA encoding amino acids 645 - 1186 preceded by Met-Ala-(His)6; made in house; host or cells: Sf9 insect cells, recombinant baculovirus vHcEGFR52
T1 sequence (P00533 669-1210): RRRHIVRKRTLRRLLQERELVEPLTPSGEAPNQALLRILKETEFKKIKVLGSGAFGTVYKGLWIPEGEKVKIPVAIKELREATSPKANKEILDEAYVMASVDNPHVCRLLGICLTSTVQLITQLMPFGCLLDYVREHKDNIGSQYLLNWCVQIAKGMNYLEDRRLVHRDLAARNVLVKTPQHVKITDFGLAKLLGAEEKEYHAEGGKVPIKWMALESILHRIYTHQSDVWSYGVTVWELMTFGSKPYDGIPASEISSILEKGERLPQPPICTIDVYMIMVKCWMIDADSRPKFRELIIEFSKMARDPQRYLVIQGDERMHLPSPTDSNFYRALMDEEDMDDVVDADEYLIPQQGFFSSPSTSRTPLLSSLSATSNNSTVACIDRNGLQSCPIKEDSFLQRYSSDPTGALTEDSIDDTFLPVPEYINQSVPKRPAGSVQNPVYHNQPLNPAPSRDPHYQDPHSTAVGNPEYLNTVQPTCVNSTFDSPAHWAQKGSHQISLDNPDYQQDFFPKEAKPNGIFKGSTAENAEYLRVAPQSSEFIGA
Procedure: Representative test compounds were evaluated for their ability to inhibit the phosphorylation of the tyrosine residue of a peptide substrate catalyzed by the enzyme epidermal growth factor receptor kinase. […] The enzyme used in this assay is the His-tagged cytoplasmic domain of EGFR. A recombinant baculovirus (vHcEGFR52) was constructed containing the EGFR cDNA encoding amino acids 645 - 1186 preceded by Met-Ala-(His)6. Sf9 cells in 100 mm plates were infected at an moi of 10 pfu/cell and cells were harvested 48 h post infection. A cytoplasmic extract was prepared using 1% Triton X-100 and applied to Ni-NTA column. After washing the column with 20 mM imidazole, HcEGFR was eluted with 250 mM imidazole (in 50 mM Na2HPO4, pH 8.0, 300 mM NaCl). Fractions collected were dialyzed against 10 mM HEPES, pH 7.0, 50 mM NaCl, 10% glycerol, 1ug/mL antipain and leupeptin and 0.1 mM Pefabloc SC. The protein was frozen in dry ice/methanol and stored -70°C.
Test compounds were made into 10 mg/mL stock solutions in 100% dimethylsulfoxide (DMSO). Prior to experiment, stock solutions were diluted to 500 uM with 100% DMSO and then serially diluted to the desired concentration with HEPES buffer (30 mM HEPES pH 7.4).
For the enzyme reaction, 10 µL of each inhibitor (at various concentrations) were added to each well of a 96-well plate. To this was added 3 µL of enzyme (1:10 dilution in 10mM HEPES, pH 7.4 for final conc. of 1:120). This was allowed to sit for 10 min on ice and was followed by the addition of 5 µl peptide (80 µM final conc.), 10 µl of 4X Buffer (Table A), 0.25 µL ^33P-ATP and 12 µL H2O. The reaction was allowed to run for 90 min at room temperature and was followed by spotting the entire volume on to precut P81 filter papers. The filter discs were washed 2X with 0.5% phosphoric acid and radioactivity was measured using a liquid scintillation counter.
The % inhibition of the test compound was determined for at least three different concentrations and the IC50 value was evaluated from the dose response curve. […] CPM(control) is in units of counts per minute and was a number expressing the amount of radiolabled ATP (g-^33P) incorporated into the RR-SRC peptide substrate by the enzyme after 90 minutes at room temperature in the absence of test compound as measured by liquid scintillation counting. The CPM values were corrected for the background counts produced by ATP in the absence of the enzymatic reaction. The IC50 values in TABLE 1 are averages of the individual determinations.

Compound: COCCN(C)CC=CC(=O)Nc1cc2c(Nc3ccc(F)c(Cl)c3)c(C#N)cnc2cc1OC.Cl.Cl [Example 89, 4-[(2-Methoxy-ethyl)-methyl-amino]-but-2-enoic acid [4-(3-chloro-4-fluoro-phenylamino)-3-cyano-7-methoxy-quinolin-6-yl]-amide dihydrochloride]
- IC50 (3T3): 2.04 µg/mL
- IC50 (Her2/3T3): 0.192 µg/mL
- Relative Tumor Growth Day 7 ([1]; Table 5, 10 mg/kg/dose PO): 2.09
- % T/C Day 7 ([1]; Table 5, 10 mg/kg/dose PO): 50* %
- Relative Tumor Growth Day 14 ([1]; Table 5, 10 mg/kg/dose PO): 3.37
- % T/C Day 14 ([1]; Table 5, 10 mg/kg/dose PO): 32* %
- Relative Tumor Growth Day 21 ([1]; Table 5, 10 mg/kg/dose PO): 5.76
- % T/C Day 21 ([1]; Table 5, 10 mg/kg/dose PO): 38* %
- Relative Tumor Growth Day 28 ([1]; Table 5, 10 mg/kg/dose PO): 7.24
- % T/C Day 28 ([1]; Table 5, 10 mg/kg/dose PO): 26* %
- S/T (# of Survivors/# of Treated) ([1]; Table 5, 10 mg/kg/dose PO): 4/5
- Relative Tumor Growth Day 7 ([1]; Table 5, 40 mg/kg/dose PO): 0.49
- % T/C Day 7 ([1]; Table 5, 40 mg/kg/dose PO): 11* %
- Relative Tumor Growth Day 14 ([1]; Table 5, 40 mg/kg/dose PO): 0.58
- % T/C Day 14 ([1]; Table 5, 40 mg/kg/dose PO): 6* %
- Relative Tumor Growth Day 21 ([1]; Table 5, 40 mg/kg/dose PO): 3.11
- % T/C Day 21 ([1]; Table 5, 40 mg/kg/dose PO): 21* %
- Relative Tumor Growth Day 28 ([1]; Table 5, 40 mg/kg/dose PO): 7.20
- % T/C Day 28 ([1]; Table 5, 40 mg/kg/dose PO): 26* %
- S/T (# of Survivors/# of Treated) ([1]; Table 5, 40 mg/kg/dose PO): 5/5
- inhibition of tumor growth in vivo ([1]; given orally at 40 mg/Kg and 10 mg/Kg): effective inhibitor of tumor growth in vivo
- IC50 (MDAMB435): 2.07 µg/mL
- IC50 (SW620): 1.53 µg/mL
- IC50 (A431): 0.245 µg/mL
- IC50 (SKBR3): 0.107 µg/mL
- IC50 [2]: 10 nM

Compound: COC[C@@H]1CCCN1CC=CC(=O)Nc1cc2c(Nc3ccc(F)c(Cl)c3)c(C#N)cnc2cc1OC.Cl.Cl [Example 90, (S)-4-(2-Methoxymethyl-pyrrolidin-1-yl)-but-2-enoic acid [4-(3-chloro-4-fluoro-phenylamino)-3-cyano-7-methoxy-quinolin-6-yl]-amide dihydrochloride]
- IC50 (3T3): 2.1 µg/mL
- IC50 (Her2/3T3): 0.329 µg/mL
- IC50 (MDAMB435): 1.74 µg/mL
- IC50 (SW620): 1.24 µg/mL
- IC50 (A431): 0.234 µg/mL
- IC50 (SKBR3): 0.148 µg/mL

Compound: COc1cc2ncc(C#N)c(Nc3ccc(F)c(Cl)c3)c2cc1NC(=O)C=CCN1CCCC(CO)C1.Cl (stereo not shown) [Example 91, 4-(3-Hydroxymethyl-piperidin-1-yl)-but-2-enoic acid [4-(3-chloro-4-fluoro-phenylamino)-3-cyano-7-methoxy-quinolin-6-yl]-amide hydrochloride]
- IC50 (3T3): 2.87 µg/mL
- IC50 (Her2/3T3): 0.375 µg/mL
- IC50 (MDAMB435): 1.83 µg/mL
- IC50 (SW620): 1.73 µg/mL
- IC50 (A431): 0.232 µg/mL
- IC50 (SKBR3): 0.181 µg/mL
- IC50 [2]: 15 nM

Compound: COc1cc2ncc(C#N)c(Nc3ccc(F)c(Cl)c3)c2cc1NC(=O)C=CCN1CCC2(CC1)OCCO2 [Example 92, 4-(1,4-Dioxa-8-aza-spiror[4.5]dec-8-yl)-but-2-enoic acid [4-(3-chloro-4-fluoro-phenylamino)-3-cvano-7-methox-quinolin-6-yl]-amide]
- IC50 3T3 (3T3): 2.79 µg/mL (≈ 5.05 µM)
- IC50 Her2/3T3 (Her2/3T3): 0.35 µg/mL (≈ 0.634 µM)
- Relative Tumor Growth Day 7 ([1]; Table 4, 10 mg/kg/dose PO): 3.94
- % T/C Day 7 ([1]; Table 4, 10 mg/kg/dose PO): 72%
- Relative Tumor Growth Day 14 ([1]; Table 4, 10 mg/kg/dose PO): 10.41
- % T/C Day 14 ([1]; Table 4, 10 mg/kg/dose PO): 100%
- Relative Tumor Growth Day 20 ([1]; Table 4, 10 mg/kg/dose PO): 14.76
- % T/C Day 20 ([1]; Table 4, 10 mg/kg/dose PO): 119%
- Relative Tumor Growth Day 28 ([1]; Table 4, 10 mg/kg/dose PO): 22.51
- % T/C Day 28 ([1]; Table 4, 10 mg/kg/dose PO): 159%
- S/T (# of Survivors/# of Treated) ([1]; Table 4, 10 mg/kg/dose PO): 5/5
- Relative Tumor Growth Day 7 ([1]; Table 4, 40 mg/kg/dose PO): 1.49
- % T/C Day 7 ([1]; Table 4, 40 mg/kg/dose PO): 27* %
- Relative Tumor Growth Day 14 ([1]; Table 4, 40 mg/kg/dose PO): 1.58
- % T/C Day 14 ([1]; Table 4, 40 mg/kg/dose PO): 15* %
- Relative Tumor Growth Day 20 ([1]; Table 4, 40 mg/kg/dose PO): 2.60
- % T/C Day 20 ([1]; Table 4, 40 mg/kg/dose PO): 21* %
- Relative Tumor Growth Day 28 ([1]; Table 4, 40 mg/kg/dose PO): 6.22
- % T/C Day 28 ([1]; Table 4, 40 mg/kg/dose PO): 44%
- S/T (# of Survivors/# of Treated) ([1]; Table 4, 40 mg/kg/dose PO): 5/5
- inhibition of tumor growth in vivo ([1]; given orally at 40 mg/Kg): effective inhibitor of tumor growth in vivo
- IC50 MDAMB435 (MDAMB435): 3.32 µg/mL (≈ 6.01 µM)
- IC50 SW620 (SW620): 2.51 µg/mL (≈ 4.55 µM)
- IC50 A431 (A431): 0.283 µg/mL (≈ 0.513 µM)
- IC50 SKBR3 (SKBR3): 0.188 µg/mL (≈ 0.341 µM)
